Measured values reported in patent US12570684B2 (UNIVERSITY OF TENNESSEE RESEARCH FOUNDATION, priority 2020, dated 2026).
Entries after “also recorded” stand apart in the source; their conditions may differ. Where two headings read alike, the source gives them in different places.

Columns and labels:
[1] = test system: pancreatic cancer cell lines (Capan-2, PANC-1, and AsPC-1); assay: Scratch (wound healing) assay; assay type: cell-based, human; conditions: 0.05, 0.1, and 0.2 μM, 24 h
Protocol: (§1) Scratch Assay. A confluent monolayer was formed in 24-well plates. The monolayer was scratched by a sterile 200 μL pipette tip and washed with PBS to remove cell debris. Complete medium with CPPB (5) (0, 0.05, 0.1, 0.2 μM) were added and scratched areas were photographed with microscope. The scratched cells were incubated at 37° C., 5% CO2. After 24 h, medium was removed and cells were stained with a 1:1 mixture of crystal violet and PBS for 5 min., washed with PBS twice, and photographed with microscope. Wound areas were measured and recovered areas were calculated.

cell lines in Table 2 = assay: MTT assays, summary over the cell lines in Table 2; assay type: cell-based
Protocol: Cell lines. The human primary PDAC cell lines PANC-1 (ATCC CRL 1469); Capan-2 (ATCC HTB-80) and metastatic PDAC cell lines Capan-1 (ATCC HTB-79), AsPC-1 (ATCC CRL-1682), L1210 (ATCC CCL-219), KB (ATCC CCL-17), HeLa, SiHa (ATCC HTB-35), HCT-116 (ATCC CCL-247), DLD-1 (ATCC CCL221), hTERT-HPNE (ATCC CRL-4023), Vero (ATCC CCL-81) were purchased from the ATCC. The cell lines were cultured and maintained in the media as recommended by the supplier. The cell lines were regularly tested for mycoplasma contamination and authenticated. In addition to ATCC cell lines, Dr. Glazer's lab generated patient-derived PDAC cell line, PD002. PD002 Cells were maintained and cultured in DMEM medium supplemented with 20% FBS and 100 IU/mL penicillin and incubated at 37° C. with 5% CO2.
MTT cytotoxicity assay. To study the effect of treatment with DPAGT1 inhibitors on the growth and proliferation of cells, a fixed number of cells (5×10^4 cells/well, 196 μL) were plated in a 96 well plate. Into each well 5 μL of drug concentration was added. After 72 h of incubation with drugs at 37° C., 5% CO2, 10 μL of MTT solution (5 mg/mL in PBS) was added and incubated another 3 h at 37° C., 5% CO2. The medium was removed, and DMSO (200 μL/well) was added. Viability was assessed on the basis of cellular conversion of MTT into a purple formazan product. The absorbance of the colored formazan product was measured at 570 nm by BioTek Synergy HT Spectrophotometer.

DPAGT1 (Human) = target: T1, DPAGT1 (Human) (Homo sapiens, UniProt Q9H3H5); assay: DPAGT1 assay; assay type: biochemical
T1 construct: made in house; host or cells: Expi293 cells (suspension)
T1 sequence (Q9H3H5 1-408): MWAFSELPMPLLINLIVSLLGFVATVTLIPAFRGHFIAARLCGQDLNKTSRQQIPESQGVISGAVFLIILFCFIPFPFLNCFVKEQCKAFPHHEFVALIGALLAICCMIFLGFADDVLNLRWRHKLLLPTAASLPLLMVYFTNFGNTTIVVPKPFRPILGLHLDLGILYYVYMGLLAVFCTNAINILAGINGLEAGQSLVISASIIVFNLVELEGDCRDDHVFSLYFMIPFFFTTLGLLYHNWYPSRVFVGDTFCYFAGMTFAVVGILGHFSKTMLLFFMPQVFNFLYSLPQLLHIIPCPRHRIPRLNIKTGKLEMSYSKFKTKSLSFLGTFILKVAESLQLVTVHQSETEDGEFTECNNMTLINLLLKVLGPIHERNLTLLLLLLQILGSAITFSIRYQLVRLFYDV
Protocol: DPAGT1 expression and purification. DPAGT1 was expressed in suspended Expi293 cells for 36 h. The cells were lysed by drawing through a 26 g needle (10 times) and membrane protein was extracted using buffer containing 1% decyl f3-D-maltopyranoside detergent. DPAGT1 was purified using HA-agarose resin and a superdex 200 size exclusion column.

HCT-116 = assay: Scratch (wound healing) assay; assay type: cell-based; conditions: scratch assays
Protocol: as §1

PD002 [2] = assay: Scratch (wound healing) assay; assay type: cell-based; conditions: 0.2 μM, 24 h; untreated PD002 63%
Protocol: as §1

SiHa = assay: Scratch (wound healing) assay; assay type: cell-based; conditions: 0.2 μM
Protocol: as §1

Snail = assay: Immunofluorescence assay using an anti-Snail antibody; assay type: cell-based
PD002 [3] = assay: Checkerboard synergy (FIC index) with paclitaxel; assay type: cell-based
Protocol: The synergistic or antagonistic activities of CPPB were assessed in vitro via checkerboard technique.

DPAGT1 = assay: Immunofluorescent staining of DPAGT1 expression; assay type: cell-based
PD002 [4] = assay: Cell migration assay using Transwell (Boyden) chamber; assay type: cell-based; conditions: 0.1 μM, 18 h; compared to tunicamycin and gemcitabine at 0.1 μM
Protocol: Cell migration assays using Transwell chamber. Cell migration assay was performed using Boyden chamber (thermo fisher). PD002 cells (˜10^4 cells/mL) were seeded in 96-wells plate (Corning, HTS Transwell-96 Well Permeable Supports, pore size: 8 μm) in FBS free media and the lower chambers were filled with 10% FBS medium. CPPB, tunicamycin, or gemcitabine (0.1 μM) was added to the upper chamber. The cells were incubated for 18 h at 37° C. under 5% CO2. The cells were fixed using 4% paraformaldehyde for 0.5 h and stained with 0.05% crystal violet (300 μL/well), after 0.5 h, images were captured via 10× magnification microscopy.

(2S,3S,4S)-2-((1R)-2-Amino-1-((2S,5R)-5-(2,4-dioxo-3,4-dihydropyrimidin-1(2H)-yl)-4-hydroxy-3-methoxytetrahydrofuran-2-yl)-2-oxoethoxy)-3,4-dihydroxy-N-(4-(4-(4-(trifluoromethoxy)-phenyl)piperidin-1-yl)benzyl)-3,4-dihydro-2H-pyran-6-carboxamide [CPPB]
migration of pancreatic cancer cell lines vs PBS control [1]: migrated far less | viability of all pancreatic cancers tested (MTT) (cell lines in Table 2; 20 μM concentration): remained viable | cytotoxicity against a series of cancer and healthy cell lines (cell lines in Table 2; at 10 μM or higher concentrations): not cytotoxic | DPAGT1 inhibitory activity (in words) (DPAGT1 (Human)): high nM range DPAGT1 inhibitors | IC50 (DPAGT1 (Human)): 200 nM | DPAGT1 inhibitory strength relative to I-CPPB (DPAGT1 (Human); CPPB vs. I-CPPB): three times stronger | DPAGT1 inhibitory activity relative to tunicamycin (DPAGT1 (Human); CPPB vs. tunicamycin): ~7.5 times | cell migration of HCT-116 (HCT-116): not inhibited; also recorded: did not inhibit migration | wound-healing rate (PD002 [2]): approximately 20% | migration of SiHa (SiHa): strongly inhibited migration | Snail expression in pancreatic cancer cells (Snail; PANC-1, AsPC-1, Capan-2, PD002): decreased by the treatment with CPPB in a concentration dependent manner; also recorded: decreased the Snail expression | Snail expression level in HCT-116 (Snail; between 0.05 and 2.0 μM): not noticeably changed | synergistic effect with paclitaxel (PD002 [3]; PD002): strong synergistic effect | IC50 (PD002 [3]; alone, read-out: IC50 of the single agent against PD002): 35000 nM | ΣFIC (PD002 [3]; entry 1, CPPB 0.10 μM + paclitaxel 0.63 μM): 0.50 | IC50 (PD002 [3]; entry 1, with paclitaxel 0.63 μM, read-out: IC50 CA (CPPB in combination)): 100 nM | ΣFIC (PD002 [3]; entry 2, CPPB 0.10 μM + paclitaxel […]): 0.13 | IC50 (PD002 [3]; entry 2, with paclitaxel […], read-out: IC50 CA (CPPB in combination)): 100 nM | ΣFIC (PD002 [3]; entry 3, CPPB 0.20 μM + paclitaxel 0.0049 μM): 0.0096 | IC50 (PD002 [3]; entry 3, with paclitaxel 0.0049 μM, read-out: IC50 CA (CPPB in combination)): 200 nM | ΣFIC (PD002 [3]; entry 4, CPPB 0.20 μM + paclitaxel 0.020 μM): 0.021 | IC50 (PD002 [3]; entry 4, with paclitaxel 0.020 μM, read-out: IC50 CA (CPPB in combination)): 200 nM | ΣFIC (PD002 [3]; entry 5, CPPB 0.20 μM + paclitaxel 0.031 μM): 0.26 | IC50 (PD002 [3]; entry 5, with paclitaxel 0.031 μM, read-out: IC50 CA (CPPB in combination)): 200 nM | ΣFIC (PD002 [3]; entry 6, CPPB 2.0 μM + paclitaxel 0.020 μM): 0.021 | IC50 (PD002 [3]; entry 6, with paclitaxel 0.020 μM, read-out: IC50 CA (CPPB in combination)): 2000 nM | ΣFIC (PD002 [3]; entry 7, CPPB 2.0 μM + paclitaxel 0.039 μM): 0.037 | IC50 (PD002 [3]; entry 7, with paclitaxel 0.039 μM, read-out: IC50 CA (CPPB in combination)): 2000 nM | ΣFIC (PD002 [3]; entry 8, CPPB 2.0 μM + paclitaxel 0.31 μM): 0.26 | IC50 (PD002 [3]; entry 8, with paclitaxel 0.31 μM, read-out: IC50 CA (CPPB in combination)): 2000 nM | DPAGT1 protein expression (DPAGT1): decreased | DPAGT1 expression in pancreatic cancer cell lines (DPAGT1; 0.2 μM): apparently inhibited | order of decrease of DPAGT1 expression (DPAGT1; 0.2 μM): PANC-1>PD002>>HCT-116 | DPAGT1 expression levels of HCT-116 (DPAGT1; 20 μM): remained high | DPAGT1 expression of the pancreatic cancer cell lines at high concentration (DPAGT1; 2-20 μM): could not completely be inhibited | cell migration of PD002 via transwell chamber (PD002 [4]): inhibited on a higher level
